Earlier results, collected in patent US20030166006A1, “Glucose-1-phosphate thymidylyltransferase and method for selecting inhibitors thereof” (priority 2000, published 2003).

Molecular target: RmlA from Pseudomonas aeruginosa (Pseudomonas aeruginosa, UniProt Q9HU22)
Conditions: allosteric feedback inhibition by final product of the four enzyme pathway; Melo & Glaser, 1965

Chain of RmlA from Pseudomonas aeruginosa (Q9HU22 1-293): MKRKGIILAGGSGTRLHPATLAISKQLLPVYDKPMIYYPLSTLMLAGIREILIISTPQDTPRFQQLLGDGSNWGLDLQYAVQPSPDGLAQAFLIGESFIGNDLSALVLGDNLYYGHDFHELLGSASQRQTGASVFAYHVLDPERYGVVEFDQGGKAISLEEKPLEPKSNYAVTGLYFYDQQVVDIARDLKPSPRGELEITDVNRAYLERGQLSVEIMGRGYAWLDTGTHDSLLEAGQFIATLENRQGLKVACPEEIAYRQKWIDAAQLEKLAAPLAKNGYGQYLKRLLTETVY

Cc1cn([C@H]2C[C@H](O)[C@@H](COP(=O)(O)OP(=O)(O)OC3OC(C)C(O)C(O)C3O)O2)c(=O)[nH]c1=O (stereo partly drawn) [dTDP-rhamnose, 2′-deoxy-thymidylyl-diphospho-L-rhamnose]
inhibition of RmlA: strongly inhibited
